Experimental data taken from US8106197B2, “Aminoheteroaryl compounds as protein kinase inhibitors” (Pfizer Inc., priority 2003, dated 2012).

These compounds were tested against T1, HGFR (Homo sapiens, UniProt P08581) (assay: HGFR continuous-coupled spectrophotometric assay). Details: Table 5; percent c-MET inhibition at 50 nM.
T1 construct: purchased Upstate 14-526
Assay type: biochemical

T1 sequence (P08581 974-1390 limits assumed): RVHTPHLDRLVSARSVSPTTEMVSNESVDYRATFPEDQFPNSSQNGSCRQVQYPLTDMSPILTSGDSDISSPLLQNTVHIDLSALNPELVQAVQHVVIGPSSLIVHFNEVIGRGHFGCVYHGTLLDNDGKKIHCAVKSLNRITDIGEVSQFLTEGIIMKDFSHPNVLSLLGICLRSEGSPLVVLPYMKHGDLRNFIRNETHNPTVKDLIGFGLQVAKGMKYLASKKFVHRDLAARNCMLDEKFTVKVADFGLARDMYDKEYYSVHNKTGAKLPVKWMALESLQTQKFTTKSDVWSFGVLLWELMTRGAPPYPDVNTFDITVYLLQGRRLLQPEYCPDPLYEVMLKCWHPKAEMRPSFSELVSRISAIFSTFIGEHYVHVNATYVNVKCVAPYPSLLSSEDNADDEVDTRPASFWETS

| inhibition at 0.05 µM [%] | SMILES |
| --- | --- |
| 84 | CC(Oc1cc(-c2ccc(C(=O)N3CCCC(C(N)=O)C3)cc2)cnc1N)c1c(Cl)ccc(F)c1Cl (stereo not drawn) |
| 69 | CC(Oc1cc(-c2ccc(C(=O)N[C@H](CO)c3ccccc3)cc2)cnc1N)c1c(Cl)ccc(F)c1Cl (stereo partly drawn) |
| 85 | CC(Oc1cc(-c2ccc(C(=O)N3CCCC(O)C3)cc2)cnc1N)c1c(Cl)ccc(F)c1Cl (stereo not drawn) |
| 60 | CC(Oc1cc(-c2ccc(C(=O)NC[C@H]3CCCO3)cc2)cnc1N)c1c(Cl)ccc(F)c1Cl (stereo partly drawn) |
| 73 | CCC(CO)NC(=O)c1ccc(-c2cnc(N)c(OC(C)c3c(Cl)ccc(F)c3Cl)c2)cc1 (stereo not drawn) |
| 77 | CC(O)CCNC(=O)c1ccc(-c2cnc(N)c(OC(C)c3c(Cl)ccc(F)c3Cl)c2)cc1 (stereo not drawn) |
| 79 | CC(Oc1cc(-c2ccc(C(=O)NC[C@@H](C)O)cc2)cnc1N)c1c(Cl)ccc(F)c1Cl (stereo partly drawn) |
| 81 | COC(=O)C(CO)NC(=O)c1ccc(-c2cnc(N)c(OC(C)c3c(Cl)ccc(F)c3Cl)c2)cc1 (stereo not drawn) |
| 56 | CCC1CCCCN1C(=O)c1ccc(-c2cnc(N)c(OC(C)c3c(Cl)ccc(F)c3Cl)c2)cc1 (stereo not drawn) |
| 59 | CCC(COC)NC(=O)c1ccc(-c2cnc(N)c(OC(C)c3c(Cl)ccc(F)c3Cl)c2)cc1 (stereo not drawn) |
| 69 | CC(Oc1cc(-c2ccc(C(=O)NC(C)C(O)c3ccccc3)cc2)cnc1N)c1c(Cl)ccc(F)c1Cl (stereo not drawn) |
| 56 | CC(NC(=O)c1ccc(-c2cnc(N)c(OC(C)c3c(Cl)ccc(F)c3Cl)c2)cc1)c1ccc(F)cc1 (stereo not drawn) |
| 64 | CCC(C)NC(=O)c1ccc(-c2cnc(N)c(OC(C)c3c(Cl)ccc(F)c3Cl)c2)cc1 (stereo not drawn) |
| 65 | CC1CCCN(C(=O)c2ccc(-c3cnc(N)c(OC(C)c4c(Cl)ccc(F)c4Cl)c3)cc2)C1 (stereo not drawn) |
| 70 | CC(Oc1cc(-c2ccc(C(=O)NCC(c3ccc[nH]3)C(F)(F)F)cc2)cnc1N)c1c(Cl)ccc(F)c1Cl (stereo not drawn) |
| 53 | CC(Oc1cc(-c2ccc(C(=O)N3CCCCC3COc3ccccc3)cc2)cnc1N)c1c(Cl)ccc(F)c1Cl (stereo not drawn) |
| 77 | CC(Oc1cc(-c2ccc(C(=O)N3CCN(CCC#N)CC3)cc2)cnc1N)c1c(Cl)ccc(F)c1Cl (stereo not drawn) |
| 59 | CC(Oc1cc(-c2ccc(C(=O)N3CCC(Cc4ccccc4)C3)cc2)cnc1N)c1c(Cl)ccc(F)c1Cl (stereo not drawn) |
| 68 | CC(Oc1cc(-c2ccc(C(=O)N[C@H]3CC[C@H](CO)CC3)cc2)cnc1N)c1c(Cl)ccc(F)c1Cl (stereo partly drawn) |
| 51 | Cc1noc([C@H]2CC[C@H](CNC(=O)c3ccc(-c4cnc(N)c(OC(C)c5c(Cl)ccc(F)c5Cl)c4)cc3)CC2)n1 (stereo partly drawn) |

Same assay, conditions: Table 6; percent c-MET inhibition at 1 μM; read-out: % inhibition

| inhibition at 1 µM [%] | SMILES |
| --- | --- |
| 24 | CN1CCN(CCCNC(=O)c2cnc(N)c(OCc3c(Cl)cccc3Cl)c2)CC1 |
| 26 | Nc1ncc(C(=O)NCCCO)cc1OCc1c(Cl)cccc1Cl |
| 31 | Nc1ncc(C(=O)NCCN2CCOCC2)cc1OCc1c(Cl)cccc1Cl |
| 27 | Nc1ncc(C(=O)NC(CO)Cc2ccc(Cl)cc2)cc1OCc1c(Cl)cccc1Cl (stereo not drawn) |
| 32 | COc1ccccc1CNC(=O)c1cnc(N)c(OCc2c(Cl)cccc2Cl)c1 |
| 27 | Nc1ncc(C(=O)NC2CCN(Cc3ccccc3)C2)cc1OCc1c(Cl)cccc1Cl (stereo not drawn) |
| 29 | Nc1ncc(C(=O)NCCc2c[nH]cn2)cc1OCc1c(Cl)cccc1Cl |
| 27 | COc1ccc(C(NC(=O)c2cnc(N)c(OCc3c(Cl)cccc3Cl)c2)C2CC2)cc1 (stereo not drawn) |
| 31 | Nc1ncc(C(=O)N2CCN(CCCO)CC2)cc1OCc1c(Cl)cccc1Cl |
| 39 | CC(C)(CO)CNC(=O)c1cnc(N)c(OCc2c(Cl)cccc2Cl)c1 |
| 31 | Nc1ncc(C(=O)N2CCN(CC(=O)N3CCOCC3)CC2)cc1OCc1c(Cl)cccc1Cl |
| 36 | Nc1ncc(C(=O)NCCc2c[nH]c3ccc(Cl)cc23)cc1OCc1c(Cl)cccc1Cl |
| 31 | CC(=O)N(C)C1CCN(C(=O)c2cnc(N)c(OCc3c(Cl)cccc3Cl)c2)C1 (stereo not drawn) |
| 49 | CC(O)CNC(=O)c1cnc(N)c(OCc2c(Cl)cccc2Cl)c1 (stereo not drawn) |
| 33 | Cc1cnc(CNC(=O)c2cnc(N)c(OCc3c(Cl)cccc3Cl)c2)cn1 |
| 29 | NC(=O)C1CCN(C(=O)c2cnc(N)c(OCc3c(Cl)cccc3Cl)c2)CC1 |
| 34 | Nc1ncc(C(=O)NCCCN2CCCC2=O)cc1OCc1c(Cl)cccc1Cl |
| 35 | CC(CCCC(C)(C)O)NC(=O)c1cnc(N)c(OCc2c(Cl)cccc2Cl)c1 (stereo not drawn) |
| 34 | Nc1ncc(C(=O)NCCc2ccc(O)cc2)cc1OCc1c(Cl)cccc1Cl |
| 32 | Nc1ncc(C(=O)NCc2ccc(F)cc2)cc1OCc1c(Cl)cccc1Cl |
| 29 | CN(C)CCNC(=O)c1cnc(N)c(OCc2c(Cl)cccc2Cl)c1 |
| 26 | CC(C)CCNC(=O)c1cnc(N)c(OCc2c(Cl)cccc2Cl)c1 |
| 29 | Nc1ncc(C(=O)NCCc2c[nH]c3ccc(O)cc23)cc1OCc1c(Cl)cccc1Cl |
| 30 | Nc1ncc(C(=O)NCC(F)(F)F)cc1OCc1c(Cl)cccc1Cl |
| 33 | CN1CCC(N(C)C(=O)c2cnc(N)c(OCc3c(Cl)cccc3Cl)c2)C1 (stereo not drawn) |

| inhibition at 1 µM [%] | SMILES |
| --- | --- |
| 24 | Nc1ncc(C(=O)NCc2ccc(OC(F)(F)F)cc2)cc1OCc1c(Cl)cccc1Cl |
| 83 | Nc1ncc(C(=O)N2CCC(O)C2)cc1OCc1c(Cl)cccc1Cl (stereo not drawn) |
| 24 | Nc1ncc(C(=O)NC[C@H]2CCCC[C@H]2O)cc1OCc1c(Cl)cccc1Cl |
| 24 | Nc1ncc(C(=O)N[C@@H]2CCCC[C@H]2CO)cc1OCc1c(Cl)cccc1Cl |
| 23 | Nc1ncc(C(=O)N[C@@H]2c3ccccc3C[C@@H]2O)cc1OCc1c(Cl)cccc1Cl |
| 62 | Nc1ncc(C(=O)N2CCC(O)(Cc3ccccc3)CC2)cc1OCc1c(Cl)cccc1Cl |
| 32 | COc1cc(CCNC(=O)c2cnc(N)c(OCc3c(Cl)cccc3Cl)c2)ccc1O |
| 34 | Nc1ncc(C(=O)NCC2COc3ccccc3O2)cc1OCc1c(Cl)cccc1Cl (stereo not drawn) |
| 36 | CC(NC(=O)c1cnc(N)c(OCc2c(Cl)cccc2Cl)c1)c1ccc(O)cc1 (stereo not drawn) |
| 33 | Nc1ncc(C(=O)N2CCCC(O)C2)cc1OCc1c(Cl)cccc1Cl (stereo not drawn) |
| 30 | CN(CC#N)C(=O)c1cnc(N)c(OCc2c(Cl)cccc2Cl)c1 |
| 35 | CC(O)CCNC(=O)c1cnc(N)c(OCc2c(Cl)cccc2Cl)c1 (stereo not drawn) |
| 34 | Nc1ncc(C(=O)NCCO)cc1OCc1c(Cl)cccc1Cl |
| 30 | Nc1ncc(C(=O)NCCc2ccncc2)cc1OCc1c(Cl)cccc1Cl |
| 30 | CCCC(CO)NC(=O)c1cnc(N)c(OCc2c(Cl)cccc2Cl)c1 (stereo not drawn) |
| 66 | Nc1ncc(C(=O)NCCOc2ccccc2)cc1OCc1c(Cl)cccc1Cl |
| 32 | C[C@@H]1CN(C(=O)c2cnc(N)c(OCc3c(Cl)cccc3Cl)c2)C[C@H](C)O1 |
| 33 | CN(C)C1CCN(C(=O)c2cnc(N)c(OCc3c(Cl)cccc3Cl)c2)C1 (stereo not drawn) |
| 33 | Nc1ncc(C(=O)NCc2ccc(F)cc2F)cc1OCc1c(Cl)cccc1Cl |
| 28 | CN(CCC(O)c1ccccc1)C(=O)c1cnc(N)c(OCc2c(Cl)cccc2Cl)c1 (stereo not drawn) |
| 25 | COc1cc(CCNC(=O)c2cnc(N)c(OCc3c(Cl)cccc3Cl)c2)cc(OC)c1O |
| 27 | COCCN1CCN(C(=O)c2cnc(N)c(OCc3c(Cl)cccc3Cl)c2)CC1 |
| 32 | Nc1ncc(C(=O)NCc2cccc(OC(F)F)c2)cc1OCc1c(Cl)cccc1Cl |
| 37 | Nc1ncc(C(=O)NCc2ccc(F)cc2Cl)cc1OCc1c(Cl)cccc1Cl |
| 29 | Nc1ncc(C(=O)NCC(O)c2ccc(O)cc2)cc1OCc1c(Cl)cccc1Cl (stereo not drawn) |

| inhibition at 1 µM [%] | SMILES |
| --- | --- |
| 32 | Nc1ncc(C(=O)N2CCC(C(=O)c3ccccc3)CC2)cc1OCc1c(Cl)cccc1Cl |
| 28 | NC(=O)CCNC(=O)c1cnc(N)c(OCc2c(Cl)cccc2Cl)c1 |
| 45 | CC(CN(C)C)NC(=O)c1cnc(N)c(OCc2c(Cl)cccc2Cl)c1 (stereo not drawn) |
| 45 | CCCOCCNC(=O)c1cnc(N)c(OCc2c(Cl)cccc2Cl)c1 |
| 46 | CC(C)OCCNC(=O)c1cnc(N)c(OCc2c(Cl)cccc2Cl)c1 |
| 43 | Nc1ncc(C(=O)N2CCC(CO)CC2)cc1OCc1c(Cl)cccc1Cl |
| 45 | Nc1ncc(C(=O)N2CCC(CCO)CC2)cc1OCc1c(Cl)cccc1Cl |
| 39 | CN(CC(N)=O)C(=O)c1cnc(N)c(OCc2c(Cl)cccc2Cl)c1 |
| 40 | CC(C)CC(NC(=O)c1cnc(N)c(OCc2c(Cl)cccc2Cl)c1)C(N)=O (stereo not drawn) |
| 40 | Nc1ncc(C(=O)N2CCN(CCCN3CCOCC3)CC2)cc1OCc1c(Cl)cccc1Cl |
| 42 | CN(C)C(=O)CN1CCN(C(=O)c2cnc(N)c(OCc3c(Cl)cccc3Cl)c2)CC1 |
| 36 | Nc1ncc(C(=O)NCCN2CCN(Cc3ccccc3)CC2)cc1OCc1c(Cl)cccc1Cl |
| 38 | Nc1ncc(C(=O)NC[C@H]2CC[C@H](c3nc4ccccc4[nH]3)CC2)cc1OCc1c(Cl)cccc1Cl |
| 17 | Nc1ncc(C(=O)NCc2ccc(C(F)(F)F)nc2)cc1OCc1c(Cl)cccc1Cl |
| 10 | CN(C)C(=O)c1cnc(N)c(OCc2c(Cl)cccc2Cl)c1 |
| 5 | Nc1ncc(C(=O)N2CCN(c3ccc(Br)cn3)CC2)cc1OCc1c(Cl)cccc1Cl |
| 15 | Cc1ccc(N2CCN(CCCCNC(=O)c3cnc(N)c(OCc4c(Cl)cccc4Cl)c3)CC2)cc1 |
| 10 | Nc1ncc(C(=O)N2CCS(=O)(=O)CC2)cc1OCc1c(Cl)cccc1Cl |
| 2 | C[C@@H]1CCC[C@H](C)N1CCNC(=O)c1cnc(N)c(OCc2c(Cl)cccc2Cl)c1 |
| 16 | Nc1ncc(C(=O)N[C@@H]2CCC[C@H]2OCc2ccccc2)cc1OCc1c(Cl)cccc1Cl |
| 15 | Nc1ncc(C(=O)NC[C@]2(O)CC[C@H](c3ccccc3)CC2)cc1OCc1c(Cl)cccc1Cl |
| 17 | Nc1ncc(C(=O)NCCc2cccc(O)c2)cc1OCc1c(Cl)cccc1Cl |
| 19 | N#CCCN1CCN(C(=O)c2cnc(N)c(OCc3c(Cl)cccc3Cl)c2)CC1 |
